The values below come from ChEMBL document CHEMBL2016457, “Discovery of potent and orally bioavailable 17β-hydroxysteroid dehydrogenase type 3 inhibitors” (Bioorg Med Chem, 2012).

The target of data set [1] is T1, 17-beta-hydroxysteroid dehydrogenase type 2 (Homo sapiens) (UniProt P37059).
T1 sequence (whole entry): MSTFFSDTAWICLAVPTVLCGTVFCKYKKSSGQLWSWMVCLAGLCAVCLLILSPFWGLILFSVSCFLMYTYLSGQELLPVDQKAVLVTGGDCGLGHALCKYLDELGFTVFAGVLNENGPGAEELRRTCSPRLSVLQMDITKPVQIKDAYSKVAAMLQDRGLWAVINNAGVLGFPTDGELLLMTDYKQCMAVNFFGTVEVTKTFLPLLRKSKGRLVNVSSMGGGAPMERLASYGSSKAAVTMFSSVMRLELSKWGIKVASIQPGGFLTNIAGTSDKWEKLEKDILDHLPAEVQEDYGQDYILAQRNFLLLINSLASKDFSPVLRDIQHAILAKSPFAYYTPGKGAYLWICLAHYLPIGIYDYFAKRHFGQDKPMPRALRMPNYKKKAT
Nature of the data set: Inhibition of human recombinant 17-beta-HSD2 expressed in human HeLa cells using estradiol as substrate preincubated for 30 mins prior substrate addition measured after 120 mins by spectrophotometry. The class given is cell-based.

For data set [2], the system named is Rattus norvegicus. The data set can be described thus: Tmax in Sprague-Dawley rat assessed as 5-(3,5-Dichloro-4-hydroxybenzylidene)-3-(4-methoxyphenyl)-2-thioxo-1,3-oxazolidin-4-one concentration at 10 mg/kg, po. The data set is classed as ADME, organism-based. Also on record: dose 10 mg/kg, route oral. Particulars: in vivo.
Data set [3] deals with Rattus norvegicus. Nature of the data set: Cmax in Sprague-Dawley rat assessed as 5-(3,5-Dichloro-4-hydroxybenzylidene)-3-(4-methoxyphenyl)-2-thioxo-1,3-oxazolidin-4-one concentration at 10 mg/kg, po. The data set is classed as ADME, organism-based. The note with it: in vivo. Further details: dose 10 mg/kg, route oral.
The test system of data set [4] is Rattus norvegicus. Nature of the data set: AUC (0 to 24 hrs) in Sprague-Dawley rat assessed as 5-(3,5-Dichloro-4-hydroxybenzylidene)-3-(4-methoxyphenyl)-2-thioxo-1,3-oxazolidin-4-one concentration at 10 mg/kg, po. The data set is classed as ADME, organism-based, Plasma. Also on record: time < 24 hr, dose 10 mg/kg, route oral. The note with it: in vivo.
In data set [5] the test system is Rattus norvegicus. The data set can be described thus: Oral bioavailability in Sprague-Dawley rat assessed as 5-(3,5-Dichloro-4-hydroxybenzylidene)-3-(4-methoxyphenyl)-2-thioxo-1,3-oxazolidin-4-one concentration at 10 mg/kg. The class given is ADME, organism-based. The note with it: in vivo.
For data set [6], the system named is Rattus norvegicus. Nature of the data set: Inhibition of LH-RH agonist leuprorelin-induced testosterone steroidogenesis in Sprague-Dawley rat drug administered po 1 hr prior leuprorelin-induction measured up to 240 mins by GC/MS analysis. The data set is classed as functional, organism-based.
Data set [7] deals with Rattus norvegicus. Nature of the data set: Inhibition of LH-RH agonist leuprorelin-induced testosterone steroidogenesis in Sprague-Dawley rat at 100 mg/kg, po administered 1 hr prior leuprorelin-induction measured up to 240 mins by GC/MS analysis relative to CB7630. The data set is classed as functional.
The subject of data set [8] is Rattus norvegicus. Nature of the data set: Inhibition of LH-RH agonist leuprorelin-induced testosterone steroidogenesis in Sprague-Dawley rat at 100 mg/kg, po administered 1 hr prior leuprorelin-induction measured after 240 mins by GC/MS analysis relative to control. Also on record: scale not given: the % may be the effect or the level left.
Data set [9] can be described thus: Tmax in Sprague-Dawley rat at 10 mg/kg, po. The data set is classed as ADME, organism-based. Further details: dose 10 mg/kg, route oral. Particulars: in vivo.
Data set [10] in a line: Cmax in Sprague-Dawley rat at 10 mg/kg, po. The note with it: in vivo. Also on record: dose 10 mg/kg, route oral. The class given is ADME, organism-based.
Data set [11] in a line: AUC (0 to 24 hrs) in Sprague-Dawley rat at 10 mg/kg, po. The data set is classed as ADME, organism-based. Further details: time < 24 hr, dose 10 mg/kg, route oral. Particulars: plasma.
Data set [12] in a line: Oral bioavailability in Sprague-Dawley rat at 10 mg/kg. The class given is ADME, organism-based. The note with it: in vivo.
For data set [13], the target named is T2, 17-beta-hydroxysteroid dehydrogenase type 3 (Homo sapiens, UniProt P37058).
T2 sequence (P37058 whole entry): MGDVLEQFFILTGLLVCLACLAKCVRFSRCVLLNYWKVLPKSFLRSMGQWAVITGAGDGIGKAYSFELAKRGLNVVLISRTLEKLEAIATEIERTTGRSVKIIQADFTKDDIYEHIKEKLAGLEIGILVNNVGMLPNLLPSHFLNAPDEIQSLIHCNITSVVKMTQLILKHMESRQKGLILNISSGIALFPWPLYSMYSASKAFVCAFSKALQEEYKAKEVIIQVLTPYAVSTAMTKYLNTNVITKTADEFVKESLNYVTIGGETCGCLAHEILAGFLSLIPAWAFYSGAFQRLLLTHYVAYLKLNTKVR
Description: Inhibition of human recombinant 17-beta-HSD3 expressed in human HeLa cells using androstenedione as substrate preincubated for 30 mins prior substrate addition measured after 120 mins by spectrophotometry

Activity calls are given as the source filed them. How the calls were made is not given here.

Broadly, the Tmax is the time at which the peak concentration occurs. Broadly, the Cmax is the maximum level reached in the sampled fluid or tissue. By AUC is commonly meant concentration integrated over time. With `COc1ccc(N2C(=O)/C(=C/c3cc(Cl)c(OP(=O)(O)O)c(Cl)c3)OC2=S)cc1`, the inhibition entry in [1] was “inactive”. Further, in the data set on Rattus norvegicus [2], the Tmax is 1 h. Moreover, the Cmax in the data set on Rattus norvegicus [3] came to 5250 ng/mL. The AUC in the data set with Rattus norvegicus [4] was determined as 18800 ng·h/mL. Further, the F in the data set on Rattus norvegicus [5] worked out at 35.1%. Also, the inhibition result in the data set on Rattus norvegicus [6] was “Dose-dependent effect”. Moreover, the “fold change (FC)” value in the data set on Rattus norvegicus [7] was found to be 2. The Activity with Rattus norvegicus [8] is 10%.

The term AUC(0-t) denotes exposure summed from dosing to a finite time, without extrapolation to infinity. As a reminder, the bioavailability is dose-corrected exposure relative to a reference, in per cent. As usually defined, the IC50 is the point on the concentration scale where inhibition reaches its midpoint. With `COc1ccc(N2C(=O)/C(=C/c3cc(Cl)c(O)c(Cl)c3)OC2=S)cc1`, the inhibition entry in [1] is “inactive”. The Tmax in data set [9] came to 1 h. In [10], the Cmax worked out at 400 ng/mL. In data set [11], this compound displayed an AUC(0-t) at 24 h of 4000 ng·h/mL. In [12], this compound came in with a bioavailability of 5.5%. In addition, it took 12 nM to reach half-maximal inhibition in [13] (IC50).
